Experimental data taken from patent US20240002395A1, “COMPOUNDS AND THEIR USE FOR TREATING NEUROPATHIC PAIN” (The Johns Hopkins University, priority 2020, published 2024).

Legend:
human MrgprX1 = target: T1, human MrgprX1 (Homo sapiens, UniProt Q96LB2); experiment: MrgprX1 positive allosteric modulator (PAM) calcium FLIPR assay in HEK293 cells; format: cell-based; details: PAM activity in presence of EC20 concentration of BAM8-22; HEK293 cells stably transfected with human MrgprX1
T1 construct: expressed in transfected cells
Method: HEK293 cells stably transfected with human MrgprX1 were plated onto poly-D-lysine-coated, black-walled, 96-well plates at a seeding density of 12,000 cells/well and grown for two days. On the day of the experiment, cells were incubated with Fluo-4 AM 2 μM, pluronic acid 0.04% and Trypan Red 1% in HBSS (pH 7.4, 100 μL) for 1 h at 37° C. For each different passage of cells, a BAM8-22 dose response was first conducted and the BAM8-22 EC20 determined. Test compounds were then dissolved and serially diluted in DMSO, further diluted with Trypan Red (1%)-containing HBSS (50 μL) and added to cells (0.33% DMSO concentration by volume) to first monitor for agonist activity. After 2.5 min, BAM8-22 at 4-fold EC20 (50 μL) was added to cells (0.25% DMSO concentration by volume) and the cells imaged on the FLIPR for an additional 2 minutes to monitor the test compounds for PAM activity. Finally, data were normalized to fluorescence signals obtained from 250 nM of BAM8-22 (maximum) and BAM8-22 at its EC20 concentration (minimum). EC50 of a test compound was defined as the concentration required to provoke a response halfway between the minimum and maximum response in the presence of EC20 concentration of BAM8-22.

[1] = Metabolic stability in human liver microsomes; format: in vitro ADME
Method: [The procedure below names another species; the source lists this species under the same test.] (§1) The metabolic stability was evaluated using mouse liver microsomes. For the cytochrome P450 (CYP)-mediated metabolism, the reaction was carried out with 100 mM potassium phosphate buffer, pH 7.4, in the presence of NADPH regenerating system (1.3 mM NADPH, 3.3 mM glucose 6-phosphate, 3.3 mM MgCl2, 0.4 U/mL glucose-6-phosphate dehydrogenase, 50 μM sodium citrate). Reactions, in triplicate, were initiated by addition of the liver microsomes to the incubation mixture (compound final concentration was 5 μM; 0.5 mg/mL microsomes). After 60 min of incubation, aliquots of the mixture were removed and the reaction quenched by addition of three times the volume of ice-cold acetonitrile spiked with the internal standard. Compound disappearance was monitored over time using a liquid chromatography and tandem mass spectrometry (LC/MS/MS) method.

[2] = Metabolic stability in mouse liver microsomes; format: in vitro ADME; details: mouse liver microsomes 0.5 mg/mL, NADPH, compound 5 μM, 60 min
Method: as §1

T1 sequence (Q96LB2 whole entry): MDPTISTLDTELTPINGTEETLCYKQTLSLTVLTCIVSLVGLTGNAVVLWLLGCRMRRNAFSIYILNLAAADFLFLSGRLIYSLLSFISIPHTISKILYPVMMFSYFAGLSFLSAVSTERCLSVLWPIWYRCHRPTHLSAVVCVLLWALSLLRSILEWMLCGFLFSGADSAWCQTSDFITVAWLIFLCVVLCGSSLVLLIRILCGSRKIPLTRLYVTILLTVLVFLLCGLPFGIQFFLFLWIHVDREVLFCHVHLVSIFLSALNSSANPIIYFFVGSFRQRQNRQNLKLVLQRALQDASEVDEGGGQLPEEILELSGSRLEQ

SMILES	EC50 (human MrgprX1)	% remaining after 1-h incubation, Human [1]	% remaining after 1-h incubation, Mouse [2]	melting point
Cc1ccccc1Oc1ncnc2sc(C)c(C)c12 [Compound 7az, 5,6-dimethyl-4-(o-tolyloxy)thieno[2,3-d]pyrimidine]	500 nM	–	<5%	107 °C
Cc1sc2ncnc(Oc3ccccc3F)c2c1C [Compound 7ba, 4-(2-fluorophenoxy)-5,6-dimethylthieno[2,3-d]pyrimidine]	200 nM	<5%	<5%	144 °C
CC(C)(C)c1sc2ncnc(Oc3c(F)cccc3OC(F)(F)F)c2c1-c1ccc(F)c(F)c1 [Compound 7al, 6-tert-butyl-5-(3,4-difluorophenyl)-4-(2-fluoro-6-(trifluoromethoxy)phenoxy)thieno[2,3-d]pyrimidine]	20 nM	>95%	>95%	150 °C
CC(C)(C)c1sc2ncnc(Oc3c(F)cccc3OC(F)(F)F)c2c1-c1ccc(Cl)cc1 [Compound 7ao, 6-tert-butyl-5-(4-chlorophenyl)-4-(2-fluoro-6-(trifluoromethoxy)phenoxy)thieno[2,3-d]pyrimidine]	10 nM	>95%	>95%	–
CC(C)(C)c1sc2ncnc(Oc3c(F)cccc3OC(F)(F)F)c2c1-c1ccc(Cl)c(Cl)c1 [Compound 7b, 6-tert-butyl-5-(3,4-dichlorophenyl)-4-(2-fluoro-6-(trifluoromethoxy)phenoxy)thieno[2,3-d]pyrimidine]	50 nM	>95%	74%	134 to 137 °C

Next, values leading:

EC50 (human MrgprX1)	% remaining after 1-h incubation, Human [1]	% remaining after 1-h incubation, Mouse [2]	melting point	SMILES
400 nM	61%	<5%	–	CC(C)(C)c1cc2c(Oc3ccccc3F)ncnc2s1 [Compound 7bc, 6-(tert-butyl)-4-(2-fluorophenoxy)thieno[2,3-d]pyrimidine]
400 nM	12%	<5%	158 °C	Cc1sc2ncnc(Oc3ccccc3F)c2c1-c1ccccc1 [Compound 7bb, 4-(2-fluorophenoxy)-6-methyl-5-phenylthieno[2,3-d]pyrimidine]
20 nM	93%	36%	205 °C	CC(C)(C)c1sc2ncnc(Oc3c(F)cccc3F)c2c1-c1ccc(Cl)c(Cl)c1 [Compound 7n, 6-tert-butyl-5-(3,4-dichlorophenyl)-4-(2,6-difluorophenoxy)thieno[2,3-d]pyrimidine]
300 nM	78%	<5%	81 to 82 °C	CC(C)(C)c1sc2ncnc(Oc3ccccc3F)c2c1-c1ccccc1 [Compound 7bd, 6-(tert-butyl)-4-(2-fluorophenoxy)-5-phenylthieno[2,3-d]pyrimidine]
